Reference: patent publication US20090062351A1, “Benzoyl amino pyridyl carboxylic acid derivatives useful as glucokinase (glk) activators” (priority 2003, published 2009)

Tests used:
glucokinase (GLK) = biological target: T1, glucokinase (GLK) (Homo sapiens, UniProt P35557); assay: biochemical
T1 sequence (P35557 1-466 isoform P35557-2): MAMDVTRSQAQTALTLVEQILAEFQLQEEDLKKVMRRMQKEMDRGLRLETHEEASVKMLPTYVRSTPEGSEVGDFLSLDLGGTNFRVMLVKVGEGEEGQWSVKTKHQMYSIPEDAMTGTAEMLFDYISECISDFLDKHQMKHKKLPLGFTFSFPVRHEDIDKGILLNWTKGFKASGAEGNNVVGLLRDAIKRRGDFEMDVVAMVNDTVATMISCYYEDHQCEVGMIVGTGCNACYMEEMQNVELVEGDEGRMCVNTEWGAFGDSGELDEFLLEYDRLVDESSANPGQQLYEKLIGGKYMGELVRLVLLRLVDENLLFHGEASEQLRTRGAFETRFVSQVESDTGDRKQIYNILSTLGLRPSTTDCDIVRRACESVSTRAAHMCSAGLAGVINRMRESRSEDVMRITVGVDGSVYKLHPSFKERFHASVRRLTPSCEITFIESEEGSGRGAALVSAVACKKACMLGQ

[1] = Plasma protein binding by equilibrium dialysis; format: in vitro ADME; settings: rat, 37° C., pH 7.4, read-out: % free in plasma
Protocol: The plasma protein binding of compounds was measured using the equilibrium dialysis technique (W. Lindner et al, J. Chromatography, 1996, 677, 1-28). Compound was dialysed at a concentration of 20 μM for 18 hours at 37° C. with plasma and isotonic phosphate buffer pH 7.4 (1 ml of each in the dialysis cell). A Spectrum® 20-cell equilibrium dialyser was used together with Teflon, semi-micro dialysis cells and Spectra/Por®2 membrane discs with a molecular weight cut off 12-14000 Dalton, 47 mm (supplied by PerBio Science UK Ltd, Tattenhall, Cheshire). Plasma and buffer samples are removed following dialysis and analysed using HPLCUV/MS (high performance liquid chromatography with UV and mass spec detection) to give the % free level in plasma.

[2] = Plasma levels following oral administration to rats; format: in vivo; settings: rat, including both bound and free, normalised dose of 1 mg compound per kilogram body weight
Protocol: Planetary Milled compounds [15 mins, 500 rpm, 5 Zirconium Balls, in a Puluerisette 7 Mill (Glen Creston Ltd, Stanmore, Middlesex, UK)] were suspended in 0.5% HPMC Tween and dosed to High Fat Fed (Research Diets, D12451, ad lib feeding 14 days) Female Alderley Park Zucker or Alderley Park Wistar rats at rate of 5 mls/kg, at doses between 0.3 and 10 mg/kg by oral gavage.
Samples of plasma were obtained either by conscious blood sampling or terminal blood sampling as follows:
Conscious blood sampling (for compound level or blood chemistry)—Intravenous blood samples were taken from tail vein using 600 μl Starstedt Multivette (EDTA) and 22 G needle at the required time point. […]
The reconstituted samples were then analysed using high performance liquid chromatography with tandem mass spectrometry detection (HPLC-MS-MS)”. […]
The concentration of test samples was determined from the ratio of the peak height of the test sample to the peak height of the internal standard. The concentration of the test sample was calculated with reference to a standard curve relating the ratio to the concentration prepared by using known concentrations of test sample added to samples of rat plasma using (3-isopropoxy-5-benzyoxy-benzoyl)amino pyridine 3-carboxylic acid as an internal standard, treated as described above.

## COC[C@H](C)Oc1cc(OCC=C2CCCC2)cc(C(=O)Nc2ccc(C(=O)O)cn2)c1 [Example 2, 6-{[(3-[(2-cyclopentylideneethyl)oxy]-5-{[(1S)-1-methyl-2-(methyloxy)ethyl]oxy}phenyl)carbonyl]amino}pyridine-3-carboxylic acid]
Glucokinase (GLK)
  EC50: 78 nM
[1]
  fraction unbound at 18 h, 20 μM: 0.0042
[2]
  Peak Blood levels: 2.2 µM
